Consider 2 compounds from article PMC11259170, “Small-molecule probe for IBD risk variant GPR65 I231L alters cytokine signaling networks through positive allosteric modulation” (Science Advances, 2024).

Format in all cases: cell-based
Test [1] concerns human monocyte-derived dendritic cells (MDDCs). The experiment in a line: Cytokine (TNF) production in human MDDCs, ELISA. To be noted: LPS 100 ng/ml, 3 hours. The method, then:
Human blood samples were collected from healthy donors at the Blood Donor Center at Massachusetts General Hospital in compliance with all relevant ethical regulations and according to protocol 2018P001504 approved by the Mass General Brigham Institutional Review Board. Donors provided informed written consent. Human PBMCs were isolated by density gradient separation using Ficoll-Paque PLUS (VWR- GE Life Sciences, catalog no. 17144002), as previously described ([54]). Isolated PBMCs were incubated overnight in DMEM (10% FBS, 0.2% sodium bicarbonate, 1X Glutamax) at 37°C, 5% CO2. Human monocytes were isolated from an unpurified Buffy Coat using RosetteSep human monocyte enrichment cocktail (StemCell Technologies, 15068) and frozen same day in FBS with 10% DMSO. […]
Frozen human monocytes were thawed and allowed to recover overnight in DMEM [10% FBS, 1% p/s, IL-4 (50 ng/ml; Peprotech, 200-04), and GM-CSF (50 ng/ml; Peprotech, 300-03)] at 37°C and 5% CO2. […] Supernatants were collected and TNF production was measured by ELISA (Invitrogen, 88-7346-88). Plates were read on BMG Labtech PHERAstar FSX. […]
(In general: ELISA stands for enzyme-linked immunosorbent assay.)

In another test the target is T1, hGPR65 (Homo sapiens, UniProt Q8IYL9).
T1 construct: expressed in transfected cells; host or cells: HeLa (ATCC CCL-2), lentiviral transduction, pLX317
T1 sequence (Q8IYL9 whole entry): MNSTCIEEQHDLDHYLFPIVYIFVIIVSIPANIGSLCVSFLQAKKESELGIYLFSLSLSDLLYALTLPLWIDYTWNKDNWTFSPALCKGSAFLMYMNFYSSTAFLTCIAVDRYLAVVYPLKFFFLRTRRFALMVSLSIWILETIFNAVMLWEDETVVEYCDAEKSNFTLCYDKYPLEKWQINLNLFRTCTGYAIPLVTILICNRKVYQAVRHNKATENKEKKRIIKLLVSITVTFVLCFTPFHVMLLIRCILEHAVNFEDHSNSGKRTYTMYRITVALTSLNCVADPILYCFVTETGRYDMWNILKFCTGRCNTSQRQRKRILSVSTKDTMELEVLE
The experiment in a line: cAMP detection (Lance Ultra), GPR65 KO HeLa reconstituted with hGPR65; 21K screen dose confirmation. The conditions noted are these: HeLa GPR65 KO + hGPR65, pH 7.1, 30 min, normalized to DMSO and 100 μM forskolin; read-out: WT EC50.

In test [2] the test system is GPR65 WT mouse splenocytes. Kind of test: cAMP detection in GPR65 WT mouse splenocytes. The conditions noted are these: 0 to 50 μM, pH 7.2, GPR65-dependent. On the procedure:
cAMP was measured in cells using the Lance Ultra cAMP Kit. Spleens were harvested from GPR65 WT and GPR65 KO mice, homogenized and passed through a 70-μm cell strainer into harvest buffer [PBS, 0.5% bovine serum albumin (BSA), and 2 mM EDTA]. Cells were then centrifuged, washed with harvest buffer, and resuspended in red blood cell lysis buffer for 10 min at RT. Cells were counted and resuspended in assay buffer (25-ml DMEM, 0.5-ml 7.5% sodium bicarbonate, and 333-μl 7.5% BSA stabilizer) and adjusted to pH 7.2 with 1 M NaOH. Splenocytes were added to a white opaque OptiPlate 384-well microplates at a density of 100,000 cells per well in 20 μl. Compounds were added into the wells using a pin transfer tool, and plates were incubated at 37°C, 5% CO2 for 40 min. Each detection reagent (5 μl) was added to the plate and incubated at RT in the dark for 1 hour. Eu-cAMP tracer and FRET emissions were read using a PerkinElmer EnVision Multimode plate reader (ENVISION21040010). Data analysis was performed using GraphPad Prism.

With `Cc1ccc(NC(=O)c2cnn3c(O)cc(-c4ccc(COC(C)C)cc4)nc23)nc1` [BRD5075, O=C(NC1=NC=C(C)C=C1)C2=C3N(N=C2)C(O)=CC(C4=CC=C(COC(C)C)C=C4)=N3], the TNF secretion entry was “did not reach statistical significance” in test [1] (5 μM) and “further TNF suppression” in test [1] (20 μM).
Consider `CN1N=C(SCc2ccc(Cl)cc2Cl)Sc2c1cnn(C)c2=O` [BTB09089, reference compound], for which, on hGPR65, the EC50 (usually the concentration needed to bring the measured effect to its halfway point) was 6 µM. For the same compound, in test [2], the “cAMP production in mouse splenocytes, compared” value was “induced higher cAMP production than BRD2813”.
